# From patent US12187723B2 (BRISTOL-MYERS SQUIBB COMPANY, priority 2019, dated 2025)
# Target: T1, human TLR7 (Homo sapiens, UniProt Q9NYK1)
# T1 construct: host or cells: HEK-Blue cells
# T1 sequence (Q9NYK1 27-1049): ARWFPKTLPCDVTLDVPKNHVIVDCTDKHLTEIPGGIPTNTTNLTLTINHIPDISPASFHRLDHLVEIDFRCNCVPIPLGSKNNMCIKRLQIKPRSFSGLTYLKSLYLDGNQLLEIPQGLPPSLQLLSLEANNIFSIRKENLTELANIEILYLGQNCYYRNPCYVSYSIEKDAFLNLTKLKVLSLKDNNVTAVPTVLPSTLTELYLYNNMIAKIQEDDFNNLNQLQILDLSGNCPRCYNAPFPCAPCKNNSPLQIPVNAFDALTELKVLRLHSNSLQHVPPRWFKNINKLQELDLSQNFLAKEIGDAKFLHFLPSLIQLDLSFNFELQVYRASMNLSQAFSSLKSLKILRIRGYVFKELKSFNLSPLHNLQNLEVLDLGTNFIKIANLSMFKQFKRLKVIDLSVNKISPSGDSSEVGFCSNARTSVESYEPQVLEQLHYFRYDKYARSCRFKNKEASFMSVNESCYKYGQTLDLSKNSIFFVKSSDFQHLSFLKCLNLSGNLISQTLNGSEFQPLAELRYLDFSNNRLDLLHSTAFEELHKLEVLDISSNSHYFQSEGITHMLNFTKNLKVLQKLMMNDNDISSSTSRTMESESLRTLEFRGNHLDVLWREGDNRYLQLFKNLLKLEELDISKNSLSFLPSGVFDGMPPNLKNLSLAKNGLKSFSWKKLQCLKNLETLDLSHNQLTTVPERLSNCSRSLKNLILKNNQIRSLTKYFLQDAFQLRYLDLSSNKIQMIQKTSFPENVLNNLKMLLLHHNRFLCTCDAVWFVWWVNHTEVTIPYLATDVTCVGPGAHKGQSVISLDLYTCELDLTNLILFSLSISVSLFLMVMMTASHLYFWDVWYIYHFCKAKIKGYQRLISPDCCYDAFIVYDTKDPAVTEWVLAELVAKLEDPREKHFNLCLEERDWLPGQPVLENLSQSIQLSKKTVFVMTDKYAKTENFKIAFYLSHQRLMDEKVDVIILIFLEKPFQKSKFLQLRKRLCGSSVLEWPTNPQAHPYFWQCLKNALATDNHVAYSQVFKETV
# Assay: TLR7 inhibition reporter assay (HEK-Blue SEAP)
# Type: cell-based
# Details: HEK-Blue cells overexpressing human TLR7, gardiquimod 7.5 μM, 22 hour incubation
# Procedure, shortened: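 Dose-response testing from 0.05 nM to 50 μM final was done on reporter cells for 22 hours at 37° C. Secreted SEAP was then detected, and inhibition was calculated as percent reduction of the agonist-plus-DMSO signal compared with wells given a known inhibitor.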
row,Structure (SMILES),IC50
1,"COc1cc(-c2cc3[nH]c(=O)n([C@@H]4CCCN(C5CCCOC5)C4)c3cc2C(C)C)cn2ncnc12 (single isomer, unassigned) [Example 218]",5.33 nM
2,"COc1cc(-c2cc3[nH]c(=O)n([C@@H]4CCCN(C5CCCOC5)C4)c3cc2C(C)C)cn2ncnc12 (single isomer, unassigned) [Example 219]",0.05 nM
3,"COCCN1CCC[C@@H](n2c(=O)[nH]c3cc(-c4cc(OC)c5ncnn5c4)c(C(C)C)cc32)C1 (single isomer, unassigned) [Example 225]",7.96 nM
4,"COc1c(C)c(-c2cc3[nH]c(=O)n(C4CCC(N5CCC(F)(F)CC5)CC4)c3cc2C(C)C)cn2ncnc12 (single isomer, unassigned) [Example 229, 1-(4-(4,4-difluoropiperidin-1-yl)cyclohexyl)-6-isopropyl-5-(8-methoxy-7-methyl-[1,2,4]triazolo[1,5-a]pyridin-6-yl)-1,3-dihydro-2H-benzo[d]imidazol-2-one]",7.31 nM
5,"COc1c(C)c(-c2cc3[nH]c(=O)n(C4CCC(N5CCC(F)(F)CC5)CC4)c3cc2C(C)C)cn2ncnc12 (single isomer, unassigned) [Example 230, 1-(4-(4,4-difluoropiperidin-1-yl)cyclohexyl)-6-isopropyl-5-(8-methoxy-7-methyl-[1,2,4]triazolo[1,5-a]pyridin-6-yl)-1,3-dihydro-2H-benzo[d]imidazol-2-one]",60.3 nM
6,"COc1cc(-c2cc3[nH]c(=O)n(C4CCC(N5CCNC(=O)C5)CC4)c3cc2C(C)C)cn2ncnc12 (single isomer, unassigned) [Example 233, 6-isopropyl-5-(8-methoxy-[1,2,4]triazolo[1,5-a]pyridin-6-yl)-1-(4-(3-oxopiperazin-1-yl)cyclohexyl)-1,3-dihydro-2H-benzo[d]imidazol-2-one]",11 nM
7,"COc1cc(-c2cc3[nH]c(=O)n(C4CCC(N5CCNC(=O)C5)CC4)c3cc2C(C)C)cn2ncnc12 (single isomer, unassigned) [Example 234, 6-isopropyl-5-(8-methoxy-[1,2,4]triazolo[1,5-a]pyridin-6-yl)-1-(4-(3-oxopiperazin-1-yl)cyclohexyl)-1,3-dihydro-2H-benzo[d]imidazol-2-one]",42.7 nM
8,"COc1cc(-c2cc3[nH]c(=O)n(C4CCC(N5CC6(CCOCC6)C5)CC4)c3cc2C(C)C)cn2ncnc12 (single isomer, unassigned) [Example 235, 1-(4-(7-oxa-2-azaspiro[3.5]nonan-2-yl)cyclohexyl)-6-isopropyl-5-(8-methoxy-[1,2,4]triazolo[1,5-a]pyridin-6-yl)-1,3-dihydro-2H-benzo[d]imidazol-2-one]",1.52 nM
9,"COc1cc(-c2cc3[nH]c(=O)n(C4CCC(N5CC6(CCOCC6)C5)CC4)c3cc2C(C)C)cn2ncnc12 (single isomer, unassigned) [Example 236, 1-(4-(7-oxa-2-azaspiro[3.5]nonan-2-yl)cyclohexyl)-6-isopropyl-5-(8-methoxy-[1,2,4]triazolo[1,5-a]pyridin-6-yl)-1,3-dihydro-2H-benzo[d]imidazol-2-one]",3.54 nM
10,"COc1cc(-c2cc3[nH]c(=O)n(C4CCC(N5CC(O)(C(F)(F)F)C5)CC4)c3cc2C(C)C)cn2ncnc12 (single isomer, unassigned) [Example 241, 1-(4-(3-hydroxy-3-(trifluoromethyl)azetidin-1-yl)cyclohexyl)-6-isopropyl-5-(8-methoxy-[1,2,4]triazolo[1,5-a]pyridin-6-yl)-1,3-dihydro-2H-benzo[d]imidazol-2-one]",3.01 nM
11,"COc1cc(-c2cc3[nH]c(=O)n(C4CCC(N5CC(O)(C(F)(F)F)C5)CC4)c3cc2C(C)C)cn2ncnc12 (single isomer, unassigned) [Example 242, 1-(4-(3-hydroxy-3-(trifluoromethyl)azetidin-1-yl)cyclohexyl)-6-isopropyl-5-(8-methoxy-[1,2,4]triazolo[1,5-a]pyridin-6-yl)-1,3-dihydro-2H-benzo[d]imidazol-2-one]",10.4 nM
12,"Cc1cc2c(cc1-c1cc(C)c3ncnn3c1)[nH]c(=O)n2[C@H]1CCCN(C)C1 [Example 11, (S)-6-methyl-5-(8-methyl-[1,2,4]triazolo[1,5-a]pyridin-6-yl)-1-(1-methylpiperidin-3-yl)-1,3-dihydro-2H-benzo[d]imidazol-2-one]",276 nM
13,"CCN1CCC[C@H](n2c(=O)[nH]c3cc(-c4cc(C)c5ncnn5c4)c(C)cc32)C1 [Example 12, (S)-1-(1-ethylpiperidin-3-yl)-6-methyl-5-(8-methyl-[1,2,4]triazolo[1,5-a]pyridin-6-yl)-1,3-dihydro-2H-benzo[d]imidazol-2-one]",144 nM
14,"Cc1cc2c(cc1-c1cc(C)c3ncnn3c1)[nH]c(=O)n2[C@H]1CCCN(C(C)C)C1 [Example 13, (S)-1-(1-isopropylpiperidin-3-yl)-6-methyl-5-(8-methyl-[1,2,4]triazolo[1,5-a]pyridin-6-yl)-1,3-dihydro-2H-benzo[d]imidazol-2-one]",124 nM
15,"Cc1cc2c(cc1-c1cc(C)c3ncnn3c1)[nH]c(=O)n2[C@H]1CCCN(C2COC2)C1 [Example 14, (S)-6-methyl-5-(8-methyl-[1,2,4]triazolo[1,5-a]pyridin-6-yl)-1-(1-(oxetan-3-yl)piperidin-3-yl)-1,3-dihydro-2H-benzo[d]imidazol-2-one]",787 nM
16,"Cc1cc2c(cc1-c1cc(C)c3ncnn3c1)[nH]c(=O)n2[C@@H]1CCCN(C)C1 [Example 15, (R)-6-methyl-5-(8-methyl-[1,2,4]triazolo[1,5-a]pyridin-6-yl)-1-(1-methylpiperidin-3-yl)-1,3-dihydro-2H-benzo[d]imidazol-2-one]",24.6 nM
17,"CCN1CCC[C@@H](n2c(=O)[nH]c3cc(-c4cc(C)c5ncnn5c4)c(C)cc32)C1 [Example 16, (R)-1-(1-ethylpiperidin-3-yl)-6-methyl-5-(8-methyl-[1,2,4]triazolo[1,5-a]pyridin-6-yl)-1,3-dihydro-2H-benzo[d]imidazol-2-one]",17 nM
18,"Cc1cc2c(cc1-c1cc(C)c3ncnn3c1)[nH]c(=O)n2[C@@H]1CCCN(C(C)C)C1 [Example 17, (R)-1-(1-isopropylpiperidin-3-yl)-6-methyl-5-(8-methyl-[1,2,4]triazolo[1,5-a]pyridin-6-yl)-1,3-dihydro-2H-benzo[d]imidazol-2-one]",13.1 nM
19,"CCc1cc2c(cc1-c1cc(OC)c3ncnn3c1)[nH]c(=O)n2[C@H]1CC[C@@H](N(CC)CC)CC1 [Example 169, 1-((1s,4s)-4-(diethylamino)cyclohexyl)-6-ethyl-5-(8-methoxy-[1,2,4]triazolo[1,5-a]pyridin-6-yl)-1,3-dihydro-2H-benzo[d]imidazol-2-one]",1.84 nM
20,"CCc1cc2c(cc1-c1cc(OC)c3ncnn3c1)[nH]c(=O)n2[C@H]1CC[C@@H](NC2COC2)CC1 [Example 170, 6-ethyl-5-(8-methoxy-[1,2,4]triazolo[1,5-a]pyridin-6-yl)-1-((1s,4s)-4-(oxetan-3-ylamino)cyclohexyl)-1,3-dihydro-2H-benzo[d]imidazol-2-one]",6.25 nM
21,"CCc1cc2c(cc1-c1cc(OC)c3ncnn3c1)[nH]c(=O)n2[C@@H]1CCCN(CC)C1 [Example 171, (R)-6-ethyl-1-(1-ethylpiperidin-3-yl)-5-(8-methoxy-[1,2,4]triazolo[1,5-a]pyridin-6-yl)-1,3-dihydro-2H-benzo[d]imidazol-2-one]",4.56 nM
